Reference: patent US8957106B2, “Iminosugar treatment of tumors” (The Chancellor, Masters and Scholars of the University of …, priority 2007, dated 2015)

Assays:
[1] = system: MelJuSo melanoma cells; experiment: MTS cell viability assay, MelJuSo; type: cell-based; settings: Homo sapiens, MEL-JUSO, 24 h, read-out: IC50 (concentration reducing number of viable cells by 50%)
Experimental: (§1) Cells were cultured at indicated densities for 24 h, medium was removed and the incubation was continued in a fresh culture medium containing various GC2 or DTIC concentrations. In control experiments, cells were grown in a culture medium containing GC2 buffer.
(§2) The standard […] (MTS)-3-(4,5-dimethylthiazol-2-yl)-5-(3-carboxymethoxyphenyl)-2-(4-sulphophenyl)-2H-tetrazolium inner salt solution assay was performed in order to examine the cytotoxic/cytostatic effect of GC2 on melanoma cells. Briefly, 7.5×10^3 cells were seeded in 96-well microtiter plates (Nunc). After an overnight incubation, serial dilutions of GC2 or DTIC were added in triplicate to a final volume of 100 μl. The blank was represented by a culture medium without cells containing the highest GC2 or DTIC concentration. After 24 h of incubation 20 μl MTS was added to each well and all samples were incubated for 3 h at 37° C. An absorbance of each well was read at 450 nm in a microplate reader. A percentage of cell viability was calculated considering that 100% cell viability was represented by an absorbance of untreated samples […]. Alternatively, the number of viable cells was determined by Trypan blue exclusion test. Melanoma cells treated with GC2 were trypsinized and cells negative for blue staining (viable cells) were counted using a hemocytometer. […]

[2] = system: MNT-1 melanoma cells; experiment: MTS cell viability assay, MNT-1; type: cell-based; settings: Homo sapiens, MNT-1, 24 h, read-out: IC50 (concentration reducing number of viable cells by 50%)
Experimental: as §1, §2

For `CC(=O)O.CCCCCCCCCN1[C@@H](CO)[C@@H](O)[C@H](O)[C@@H]1CCCCCCCC` [GC2, (2S,3R,4R,5S)-3,4-dihydroxy-N-nonyl-5-octyl-2 hydroxymethylpyrrolidinium acetate], the IC50 [1] was 7 to 8 µM and the IC50 [2] was 7 to 8 µM.
